Source: patent publication US9663478B2, “Benzotriazine oxides as drugs targeting Mycobacterium tuberculosis” (priority 2011, dated 2017)
Converted amounts (≈) assume the structure as drawn.

What was measured:
Mtb H37Rv [1] = assay: TB MIC - SRI, resazurin-based microplate assay; type: cell-based, Mycobacterium tuberculosis; settings: for MIC: Mycobacterium tuberculosis, H37RV
Mtb H37Rv [2] = assay: TB MIC - ITR (UIC), Institute for Tuberculosis Research; type: cell-based, Mycobacterium tuberculosis; settings: Mycobacterium tuberculosis, H37RV, read-out: TB MIC - ITR
NRP Mtb H37Rv cells = assay: Low-oxygen recovery assay (LORA) MIC; type: cell-based, Mycobacterium tuberculosis; settings: Mycobacterium tuberculosis, H37RV; NRP Mtb; Tables 1-4 and text; read-out: LORA MIC - ITR
[3] = tested on: Mycobacterium smegmatis ATCC 10143; assay: Spectrum of antimicrobial activity; type: cell-based
[4] = tested on: Mycobacterium abscessus ATCC 19977; assay: Spectrum of antimicrobial activity; type: cell-based
[5] = tested on: Klebsiella pneumoniae ATCC 700721; assay: Spectrum of antimicrobial activity; type: cell-based
Escherichia coli BAA 201 = assay: Spectrum of antimicrobial activity; type: cell-based
[6] = tested on: Acinetobacter baumannii BAA 1605; assay: Spectrum of antimicrobial activity; type: cell-based
[7] = tested on: Staphylococcus aureus ATCC 29213; assay: Spectrum of antimicrobial activity; type: cell-based
[8] = tested on: Staphylococcus aureus HA-MRSA NRS 382; assay: Spectrum of antimicrobial activity; type: cell-based
[9] = tested on: Salmonella choleraesuis ATCC 13311; assay: Spectrum of antimicrobial activity; type: cell-based
[10] = tested on: Salmonella typhimurium tester strain TA98; assay: Salmonella/microsome plate incorporation assay (Ames screen), TA98; type: cell-based
Excerpt: A liability in developing any bioreductively-activated antimicrobial drug is the potential for mutagenicity. Because the basis for activity of these compounds is the generation of intermediate radical species, undesirable mutagenicity poses a risk, as has been documented for many classes of bioreductive drugs, including the BTO tirapazamine (TPZ).^19,20 The most convenient methodology for assessing the potential to induce genetic damage is to use the plate incorporation method with Salmonella typhimurium strains TA98 and TA100, commonly known as the Ames assay. The Salmonella tester strains have mutations in the histidine operon, a mutation that leads to defective lipopolysaccharide (rfa), and a deletion that covers genes involved in the synthesis of biotin (bio) and in the repair of ultraviolet-induced DNA damage (uvrB).^21,22 These mutations make the strains more permeable to many molecules and increase their susceptibility to the mutagenic effects of these molecules. Given that the hypothesized mechanism of the BTO compounds is to selectively form cytotoxic radical species in bacteria over mammalian cells, a microbial mutagenicity assay is not ideal, but was used to benchmark their activities in this assay. […] Individual plate counts and their means and standard deviations, along with the condition of the background lawn, are presented in SI Table 2.
Experimental compounds were screened for microbial mutagenicity activity using the plate incorporation method with Salmonella typhimurium tester strains TA98 and TA100, in the presence and absence of an Aroclor 1254-induced rat-liver metabolic activation system containing 10% S9 (MA). The presence of the appropriate genetic characteristics was verified for the strains used in this study. Stock solutions were made by dissolving each test sample in dimethyl sulfoxide (DMSO) at 5 mg/ml. These initial stock concentrations were then serially diluted to achieve dose formulations of 100, 50, 10, 5, 1, 0.5, and 0.1 μg/plate (dosing volume 100 μl). Test plates were compared with the control plates for their revertant count and for the condition of the background bacterial lawn. A test article was considered a mutagen when the mean number of revertant colonies on the test plates exceeds the mean solvent control counts by at least a two-fold margin. Dose relatedness was also taken into account when evaluating a mutagenic response. Cytotoxicity was estimated by several parameters: a substantial decrease in the number of revertant colonies on the test plates, clearing or absence of the background bacterial lawn growth, formation of pinpoint nonrevertant colonies, or complete absence of bacterial growth.

[11] = Plasma pharmacokinetics in female mice after oral administration; type: in vivo, mouse; settings: female mice, oral, 100 mg/kg
Method: In order to validate BTOs as a new lead series for the treatment of TB, we also evaluated their systemic exposure in the mouse after oral administration. A single dose (100 mg/kg) of 8a and 20q were administered to mice in order to profile the pharmacokinetics for the BTOs (Table 7). […] The elimination half-life was for each compound was shorter than our ideal target values, but the Tmax values indicate that they are rapidly absorbed after oral administration (FIGURE).
All pharmacokinetic studies were performed in accordance with SRI International's animal care policies in an AAALAC and OLAW accredited facility. The procedure for the pharmacokinetics studies followed a previously described method.^55 Briefly, the plasma pharmacokinetics of selected BTO derivatives were determined in female CD1 mice after administration of a single dose (100 mg/kg) by oral gavage. Blood was collected from three mice per time point at 5, 15, 30, and 60 min and 2, 4, 6, 8, and 24 h after dose administration. Means and standard deviations were calculated for the plasma drug concentrations at each time point. Pharmacokinetic analysis was performed using non compartmental methods (WinNonlin® Professional, Version 5.2, Pharsight Corp, Mountain View, Calif.). The following parameters were calculated: time to maximum plasma concentration (Tmax), maximum plasma concentration (Cmax), maximum plasma concentration extrapoloated to time 0 (C0), area under the plasma concentration-time curve to the last time point (AUClast) and to infinity (AUCinf).

[12] = as above; type: in vivo, mouse; settings: female Balb/c mice, po 100 mg/kg
Vero cells = assay: Cytotoxicity against Vero cells (Cell Titer-Glo); settings: 72 h; Tables 1-4 and text
[13] = TA98, with metabolic activation (10% S9), 0.1 μg per plate
[14] = TA98, with metabolic activation (10% S9), 0.5 μg per plate
[15] = TA98, with metabolic activation (10% S9), 1 μg per plate
[16] = TA98, with metabolic activation (10% S9), 5 μg per plate
[17] = TA98, with metabolic activation (10% S9), 10 μg per plate
[18] = TA98, with metabolic activation (10% S9), 50 μg per plate
[19] = TA98, with metabolic activation (10% S9), 100 μg per plate
[20] = TA98, without metabolic activation, 0.1 μg per plate
[21] = TA98, without metabolic activation, 0.5 μg per plate
[22] = TA98, without metabolic activation, 1 μg per plate
[23] = TA98, without metabolic activation, 5 μg per plate
[24] = TA98, without metabolic activation, 10 μg per plate
[25] = TA98, without metabolic activation, 50 μg per plate
[26] = TA98, without metabolic activation, 100 μg per plate

[O-][n+]1nc(N2CCCC2)[n+]([O-])c2cc3c(cc21)CCC3 [Compound 20q, 3-(pyrrolidin-1-yl)-7,8-dihydro-6H-indeno[5,6-e][1,2,4]triazine 1,4-dioxide]
MIC (Mtb H37Rv [1]; read-out: MIC, H37Rv, Table 5): 0.62 µg/mL (≈ 2.28 µM) | MIC (Mtb H37Rv [1]; read-out: TB MIC - SRI, Tables 1-4 and text): 0.31 µg/mL (≈ 1.14 µM) | Antimicrobial activity, Mtb H37Rv (Mtb H37Rv [1]; source CSU, SI Table 1): 0.31 µg/mL | MIC (Mtb H37Rv [2]): 0.46 µg/mL (≈ 1.69 µM) | MIC (NRP Mtb H37Rv cells): 0.99 µg/mL (≈ 3.64 µM) | Antimicrobial activity, Mycobacterium smegmatis [3]: 2.5 µg/mL | susceptibility of M. abscessus [4]: resistant | Antimicrobial activity, Mycobacterium abscessus ([4]; ATCC 19977): >32 µg/mL | Antimicrobial activity, Klebsiella pneumoniae [5]: >32 µg/mL | Antimicrobial activity, Escherichia coli (Escherichia coli BAA 201): >32 µg/mL | Antimicrobial activity, Acinetobacter baumannii [6]: >32 µg/mL | Antimicrobial activity, Staphylococcus aureus [7]: >32 µg/mL | Antimicrobial activity, Staphylococcus aureus HA-MRSA [8]: >32 µg/mL | Antimicrobial activity, Salmonella choleraesuis [9]: >32 µg/mL | Mean revertants per plate [10, 13]: 39.5 | Ratio treated/solvent [10, 13]: 1.4 | Mean revertants per plate [10, 14]: 30.0 | Ratio treated/solvent [10, 14]: 1.1 | Mean revertants per plate [10, 15]: 47.5 | Ratio treated/solvent [10, 15]: 1.7 | Mean revertants per plate [10, 16]: 124.0 | Ratio treated/solvent [10, 16]: 4.5 | Mean revertants per plate [10, 17]: 266.5 | Ratio treated/solvent [10, 17]: 9.8 | Mean revertants per plate [10, 18]: 988.0 | Ratio treated/solvent [10, 18]: 36.1 | Mean revertants per plate [10, 19]: 1566.0 | Ratio treated/solvent [10, 19]: 57.3 | Mean revertants per plate [10, 20]: 33.0 | Ratio treated/solvent [10, 20]: 1.0 | Mean revertants per plate [10, 21]: 50.5 | Ratio treated/solvent [10, 21]: 1.6 | Mean revertants per plate [10, 22]: 85.0 | Ratio treated/solvent [10, 22]: 2.7 | Mean revertants per plate [10, 23]: 241.0 | Ratio treated/solvent [10, 23]: 7.5 | Mean revertants per plate [10, 24]: 378.5 | Ratio treated/solvent [10, 24]: 11.8 | Mean revertants per plate [10, 25]: 797.0 | Ratio treated/solvent [10, 25]: 24.9 | Mean revertants per plate [10, 26]: 1133.0 | Ratio treated/solvent [10, 26]: 35.4 | number of revertant colonies, TA98 ([10]; presence and absence of metabolic activation): dose-related increases in the number of revertant colonies | AUCinf [11]: 11248 ng·h/mL | AUClast [11]: 11219 ng·h/mL | Cmax [11]: 9767 ng/mL | Tmax [11]: 0.25 h | t1/2 [11]: 1.9 h | plasma drug concentration at the 24 hr time point [12]: lower than the limit of quantitation | Vero Tox CC50 (Vero cells): 25 µg/mL
